Results on three molecules are retold here after patent US8377989B2, “Room temperature stable non-crystalline aspirin and method for the preparation thereof” (priority 2007, dated 2013).

For series [1] the following is noted: 298K; vitrified by melting and cooling or ball-milling; cited from earlier work.
The nature of series [2]: Storage stability of the non-crystalline form at room temperature (appearance, PXRD). Format: physicochemical. As to conditions: for time the non-crystalline glass form remained stable: room temperature. The source says:
Within an hour of the evaporative desolvation process following the laser treatment, the system stabilized with 80 percent or more of the mass of the sample cured to a clear non-crystalline glass rather than a crystalline form.
After the 6 months of storage, the laser treated aspirin was studied by PXRD.
(§1) Subsequent tests with the protocol of Example 2 were repeated with the order of long and short wavelengths reversed, i.e., short wavelength followed by long wavelength cycled sequenced laser treatment. This protocol also produced up to 90 percent yields of room temperature stable non-crystalline glass aspirin, which remained stable at room temperature for over 23 months. The Petri dish containing such a sample of non-crystalline aspirin was placed on edge for a period of about six weeks.

Series [3] in a line: Flow test: Petri dish with sample placed on edge. It is filed as physicochemical. As to conditions: Example 3; Petri dish on edge for about six weeks.
Source text: as §1

For series [4] the following is noted: 100 K (−173° C.) versus ambient conditions; cited from earlier work.

As for `CC(=O)Oc1ccccc1C(=O)O` [vitreous aspirin], in series [1], the stability against crystallization entry is “did not crystallize for four to five days”.
Take `CC(=O)Oc1ccccc1C(=O)O` [non-crystalline aspirin, acetylsalicylic acid]: in series [2] (Example 2, additional six months of storage after the first 6 months), the “crystallization on further storage” value is listed as “No crystallization has been observed”. Besides, the “storage period with no change in appearance of the sample” value in series [2] (Example 2, room temperature of about 18° to 22° C., about 30 to 40 percent humidity) is on record as “over 6 months”. Also, in series [2] (Example 3, short wavelength followed by long wavelength laser treatment), the “time remained stable at room temperature” value is “over 23 months”. The entries for the “time the non-crystalline glass form remained stable” value in series [2], in series [2] (listed as glass aspirin) and in series [2] (listed as non-crystalline glass form) were “stable at room temperature once the solvent had evaporated”, “stable for up to about a year at room temperature” and “stable at room temperature for at least up to about a year”, respectively. Also, in series [2] (temperature of about 20° to 30° C.), the “time the non-crystalline form remained stable” value is “stable at a temperature of about 20° to 30 °C for at least about a year”. The “flowing of the sample” value in series [3] is “No flowing of the sample was observed”.
In the case of `CC(=O)Oc1ccccc1C(=O)O` [Aspirin Form II], the “stability of the polymorphic form” value in series [4] is reported as “kinetically stable at 100 K (−173° C.), but converts back to Form I at ambient conditions”.
